Assays:
[1] = test system: PI4K2B (PI4K2 beta); assay: SelectScreen Kinase Profiling Service (PIPK profiling); format: biochemical; conditions: 1 μM UNI418; [ATP] 10 μM
Excerpt: (§1) UNI418 has a core structure consisting of 4-quinazolinamine (Fig. 1a, green), which is often found in kinase inhibitors. […] The phosphoinositide (PI) system is a crucial regulatory mechanism in membrane trafficking and is tightly regulated through phosphorylation cascades by multiple phosphatidylinositol phosphate kinases (PIPKs)[30]. We hypothesized that UNI418 may inhibit PIPK(s) and performed PIPK profiling analysis. […] To test whether UNI418 interacts with PIP5K1C and PIKfyve, we performed a CETSA, which determines the characteristics of protein stabilization upon ligand binding to the target protein[31]. UNI418- or DMSO-treated cell lysates were incubated at different temperatures, and the presence of the target protein in the soluble fraction was analyzed by Western blotting (Fig. 1c).
(§2) Fig. 1 UNI418 specifically targets PIP5K1 and PIKfyve. a Chemical structure of UNI418. The 4-quinazolinamine core is highlighted in green. b Table of the kinase profiling analysis. Inhibition of several kinases was determined at a 1 μM concentration of UNI418 and analyzed by the SelectScreen Kinase Profiling Service (Thermo Fisher Scientific). c Cellular thermal shift assay. Ectopically expressed GFP-PIP5K1C and GFP-PIKfyve were heated to the indicated temperatures with/without UNI418, and the presence of protein in the soluble fraction was analyzed by Western blot analysis. TEXT PRINTED IN THE PICTURE: (b) UNI418: % Inhibition (mean): 11 ([ATP] Tested (μM): 10; Kinase Tested: PI4K2A (PI4K2 alpha)); % Inhibition (mean): 4 ([ATP] Tested (μM): 10; Kinase Tested: PI4K2B (PI4K2 beta)); % Inhibition (mean): -6 ([ATP] Tested (μM): 10; Kinase Tested: PI4KA (PI4K alpha)); % Inhibition (mean): 48 ([ATP] Tested (μM): Km app; Kinase Tested: PI4KB (PI4K beta)); % Inhibition (mean): 20 ([ATP] Tested (μM): 10; Kinase Tested: PIK3C2B (PI3K-C2 beta)); % Inhibition (mean): 22 ([ATP] Tested (μM): 10; Kinase Tested: PIK3C2G (PI3K-C2 gamma)); % Inhibition (mean): 4 ([ATP] Tested (μM): 100; Kinase Tested: PIK3C3 (hVPS34)); % Inhibition (mean): 8 ([ATP] Tested (μM): 10; Kinase Tested: PIK3CA/PIK3R3 (p110 alpha/p55 gamma)); % Inhibition (mean): 7 ([ATP] Tested (μM): 10; Kinase Tested: PIK3CB/PIK3R2 (p110 beta/p85 beta)); % Inhibition (mean): 9 ([ATP] Tested (μM): 10; Kinase Tested: PIP4K2A); % Inhibition (mean): 67 ([ATP] Tested (μM): 10; Kinase Tested: PIP5K1A); % Inhibition (mean): 93 ([ATP] Tested (μM): 10; Kinase Tested: PIP5K1B); % Inhibition (mean): 93 ([ATP] Tested (μM): 10; Kinase Tested: PIP5K1C); % Inhibition (mean): 100 ([ATP] Tested (μM): 100; Kinase Tested: PIKFYVE) | (b) Apilimod: % Inhibition (mean): 100 ([ATP] Tested (μM): 100; Kinase Tested: PIKFYVE) […]

[2] = test system: PIK3C3 (hVPS34); assay: as above; format: biochemical; conditions: 1 μM UNI418; [ATP] 100 μM
Excerpt: as §1, §2

[3] = test system: PI4KA (PI4K alpha); assay: as above; format: biochemical; conditions: 1 μM UNI418; [ATP] 10 μM
Excerpt: as §1, §2

[4] = test system: PIK3C2G (PI3K-C2 gamma); assay: as above; format: biochemical; conditions: 1 μM UNI418; [ATP] 10 μM
Excerpt: as §1, §2

[5] = test system: PIK3CA/PIK3R3 (p110 alpha/p55 gamma); assay: as above; format: biochemical; conditions: 1 μM UNI418; [ATP] 10 μM
Excerpt: as §1, §2

[6] = test system: PI4K2A (PI4K2 alpha); assay: as above; format: biochemical; conditions: 1 μM UNI418; [ATP] 10 μM
Excerpt: as §1, §2

[7] = test system: GFP-PIP5K1C; assay: Cellular thermal shift assay (CETSA); format: cell-based; conditions: versus DMSO control, Western blot
Experimental: (§3) The chemically treated cells were heated to 56 °C for 3 min to denature and precipitate nontargeted proteins. The heated cells were immediately snap-frozen in liquid nitrogen overnight. After the cells were frozen and thawed twice, the tubes were briefly vortexed. The resulting cell lysates were subjected to SDS‒PAGE.
(§4) Fig. 1 UNI418 specifically targets PIP5K1 and PIKfyve. a Chemical structure of UNI418. The 4-quinazolinamine core is highlighted in green. b Table of the kinase profiling analysis. Inhibition of several kinases was determined at a 1 μM concentration of UNI418 and analyzed by the SelectScreen Kinase Profiling Service (Thermo Fisher Scientific). c Cellular thermal shift assay. Ectopically expressed GFP-PIP5K1C and GFP-PIKfyve were heated to the indicated temperatures with/without UNI418, and the presence of protein in the soluble fraction was analyzed by Western blot analysis. […]

[8] = test system: GFP-PIKfyve; assay: Cellular thermal shift assay (CETSA); format: cell-based; conditions: versus DMSO control, Western blot
Experimental: as §3, §4

SMILES: c1ccc(-c2cc(Nc3nc(-c4ccncc4)nc4ccccc34)n[nH]2)cc1 [UNI418, N -(5-phenyl-1 H -pyrazol-3-yl)-2-(4-pyridinyl)-4-quinazolinamine]
- % Inhibition (mean) [1]: 4%
- % Inhibition (mean) [2]: 4%
- % Inhibition (mean) [3]: -6%
- % Inhibition (mean) [4]: 22%
- % Inhibition (mean) [5]: 8%
- % Inhibition (mean) [6]: 11%
- thermal stabilization of target protein in soluble fraction [7]: more stable at higher temperatures
- thermal stabilization of target protein in soluble fraction [8]: more stable at higher temperatures
